System: Helicobacter infection
Assay: Vac A treatment of patients with pemphygus, allergic dermatitis and atopy
Type: in vivo
Conditions: more chronic and persistent cases, 25 to 75 mg bid
Description: Vacuolating Toxin A (recombinant Vac A; Austral Biologicals, catalog number HPA-5010-4) at 0.01 mg/ml in bacteriostatic water and 0.2 ml was injected subcutaneously 2-6 times per day at intervals of at least one hour to patients with various conditions associated with evidence of Helicobacter infection.

SMILES: CN(C)CCOC(c1ccccc1)c1ccccc1 [diphenhydramine]
- use as supplement to Vac A therapy: used successfully

Reference: patent US20060078919A1, “Diagnostic test kit and methods of diagnosis and treatment of helicobacter SPP. associated infections” (Harry C. Gurney Janice Gurney, priority 2004, published 2006)
